Results as given in article PMC7762828 (Journal of medicinal chemistry, 2020).
pIC50: −log10 of the molar value.

Experiments:
[1] = target: Human recombinant HDAC4 (Homo sapiens, UniProt P56524); assay: HDAC4 inhibition assay; type: biochemical; conditions: selectivity for HDAC6 over HDAC4
[2] = system: HL60 cells; assay: Western blot of protein acetylation in HL60 cells; type: cell-based; conditions: HL60, 24 h, two concentrations, immunoblot
[3] = system: leukemia cell lines; assay: CellTiter-Glo cell viability assay, panel of seven leukemia cell lines; type: cell-based; conditions: 72 h, read-out: cell viability IC50
[4] = system: HL60 cells; assay: Annexin V-propidium iodide apoptosis assay; type: cell-based; conditions: HL60, 24 h
[5] = system: T-ALL cell line (HSB-2); assay: Combinatorial high throughput drug screen; type: cell-based

Chain of Human recombinant HDAC4 (P56524 whole entry): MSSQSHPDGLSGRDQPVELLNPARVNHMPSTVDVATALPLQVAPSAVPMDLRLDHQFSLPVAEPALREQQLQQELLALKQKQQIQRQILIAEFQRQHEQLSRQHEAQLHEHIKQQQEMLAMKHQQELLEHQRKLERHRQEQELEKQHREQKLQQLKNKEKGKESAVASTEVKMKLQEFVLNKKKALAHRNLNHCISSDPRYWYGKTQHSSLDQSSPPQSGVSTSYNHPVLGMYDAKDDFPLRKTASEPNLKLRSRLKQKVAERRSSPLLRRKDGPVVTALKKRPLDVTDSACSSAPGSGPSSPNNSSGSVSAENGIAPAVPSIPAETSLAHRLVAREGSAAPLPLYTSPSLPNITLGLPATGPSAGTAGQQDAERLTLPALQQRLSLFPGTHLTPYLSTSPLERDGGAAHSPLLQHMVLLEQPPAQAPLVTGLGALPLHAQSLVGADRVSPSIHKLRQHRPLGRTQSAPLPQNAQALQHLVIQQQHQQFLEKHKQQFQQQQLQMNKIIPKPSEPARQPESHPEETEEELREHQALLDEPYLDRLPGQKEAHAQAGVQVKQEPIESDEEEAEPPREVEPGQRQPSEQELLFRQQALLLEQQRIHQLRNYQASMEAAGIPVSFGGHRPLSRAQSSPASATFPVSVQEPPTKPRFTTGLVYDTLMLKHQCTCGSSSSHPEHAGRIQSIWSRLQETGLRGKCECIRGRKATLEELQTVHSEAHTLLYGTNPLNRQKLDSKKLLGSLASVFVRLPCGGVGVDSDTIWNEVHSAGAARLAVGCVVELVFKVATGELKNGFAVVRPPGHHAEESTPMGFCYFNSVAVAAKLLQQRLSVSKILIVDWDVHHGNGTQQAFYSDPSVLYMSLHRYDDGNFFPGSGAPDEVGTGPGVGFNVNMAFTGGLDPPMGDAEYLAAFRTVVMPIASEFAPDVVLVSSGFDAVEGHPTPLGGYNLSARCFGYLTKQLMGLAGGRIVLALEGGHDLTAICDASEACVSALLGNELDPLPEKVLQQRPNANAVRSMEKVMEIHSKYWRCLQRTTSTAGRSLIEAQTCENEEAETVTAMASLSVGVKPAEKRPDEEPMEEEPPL

Structure (SMILES): O=C(NO)c1ccc(CN(Cc2nnnn2Cc2ccccc2)C(=O)c2ccccc2C(F)(F)F)cc1 [6l]
- SI (HDAC4 vs HDAC6) [1]: 1857
- acetylation status of histone H3 (ac-H3), marker for class I HDAC inhibition [2]: unaffected
- α-tubulin acetylation (ac-α-tubulin), marker for HDAC6 inhibition [2]: induced α-tubulin acetylation
- pIC50 [3]: < 4.70
- cytotoxic effect as single agent (number of viable cells) ([4]; 6l alone at 2.5 or 5 μM): no cytotoxic effect
- apoptosis induction in combination with BTZ (late apoptotic/dead cells) ([4]; combination with bortezomib (BTZ) versus BTZ alone): augmented the apoptosis induction of BTZ
- cytotoxic activity in combination with anthracyclines ([5]; HSB-2, 6l […] and 5 μM with epirubicin (Epi) and daunorubicin (Dauno)): significant enhancement of cytotoxic activity
- cytotoxicity as single agent ([5]; HSB-2, 6l alone): unable to affect the cytotoxicity
